The text below walks through data of patent EP0227593A1, “Use of chelating agents” (THE HOSPITAL FOR SICK CHILDREN, priority 1985, dated 1987).

The test system of one experiment is Lewis lung carcinoma. Put plainly: Tumour growth and metastases of Lewis lung carcinoma in mice. It counts as in vivo. The conditions noted are these: 5 injections. How it is done: Female C57B16 mice (10 mice/group, 18-22 g body weight) were i.m. injected into the left hind leg with 0.1 ml of a tumour cell suspension of Lewis lung carcinoma (day 0).
Nine groups of animals were investigated. The test compounds were s.c. administered as follows: physiological saline: once daily for eleven days starting from day 0 up to day 10. DFO: 0.5 ml in distilled water in a dose of 10 and 30 mg/kg once daily for eleven days, on day 0 up to day 10 after tumour inocculation. 10-EDAM: 0.5 ml in distilled water in a dose of 3 and 6 mg/kg, once daily on days 1, 3, 5, 7 and 9 after tumour inocculation.
Both hind legs were removed from the body, weighed, and the difference between the tumour bearing and the tumour free leg was taken as the tumour weight of one idividual mouse.
Lungs were filled up with Pelikan-ink via the trachea, fixed in Fekete-solution and metastases (white spot on black back-ground) on the lung surface were counted microscopically.

The subject of the next experiment is L-1210 tumour cells. Put plainly: L-1210 tumour growth in mice. It counts as in vivo. The conditions noted are these: day 8. As for the experimental part: One hour prior to kill on day 8 the mice received one ip injection of 0.002 mCi of 3H-thymidine per g body weight. Cells were harvested from the peritoneal cavity, the volume of ascites measured and the cell counts determined in a coulter counter, after lysis of red cells with zap-oglobin, for calculation of total tumour cell numbers. Also, of each sample cell smears were done, Feulgen stained and autoradiographed, whereby the number and percentage of labelled cells was determined and used as a measure for proliferating cells.

The test system of experiment [1] is HL-60 cells. Nature of the experiment: HL-60 colony growth with cytostatic compounds alone or with 1 µM DFO. The format is cell-based, human. The conditions noted are these: cytostatic alone, various concentrations. As for the experimental part: HL-60 cells (10⁴/ml) were plated in 0.8 % methycellulose in RPMI-1640 medium supplemented with 20 % heat inactivated (56°C, 30 min) fetal calf serum at a final volume of 1 ml/culture plate. Cultures were set up in duplicates and maintained at 37°C in a 5 % CO₂ humidified atmosphere. Deferoxamine was dissolved in iron-free RPMI culture medium and added at the initiation of culture at different concentrations (1-10 µM). Colonies were counted at 7 days using an inverted microscope. A cluster of more than 20 cells was defined as a colony. Individual colonies were plucked from culture plates spread on glass slides and morphologically assessed after preparation with Wright's stain and non-specific esterase in the presence of fluoride (29). The self renewal capacity of cells was assessed according to McCulloch et al (30). RPMI-1640 medium was added to culture dishes for 2 hrs; the contents of each dish were then transferred into a tube, centrifuged and washed with medium three times. Cells from each dish were counted separately, and viability was assessed by trypan blue dye exclusion. Cells (1x10⁴/ml) from each dish were recultured in 0.8 % methylcellulose as before. […]
Cultures were evaluated at day 6 using an inverted microscope (100 x magnification). A cluster of more than 20 cells was determined as a colony.

Experiment [2] relates to HL-60 cells. Put plainly: Colony growth of HL-60 cells. It counts as cell-based, human. Particulars: concentration of 10 µm. As for the experimental part: HL-60 cells, a promyeloctic leukemia cell line originally developed by Dr. R. Gallo, NIH, were used. Cells were grown in RPMI supplemented with 10 % heat inactivated fetal calf serum (FCS, Flow Laboratories, Rockville, MO) and 2 mM glutamine (Gibco, Berkely, CA), at densities ranging from 1-2 x 10⁵/ml to 1-10⁶/ml, in a 5 % CO₂ humidified atmosphere at 37°C.
HL-60 cells (10⁴/ml) were plated in 0.8 % methycellulose in RPMI-1640 medium supplemented with 20 % heat inactivated (56°C, 30 min) fetal calf serum at a final volume of 1 ml/culture plate. Cultures were set up in duplicates and maintained at 37°C in a 5 % CO₂ humidified atmosphere. Deferoxamine was dissolved in iron-free RPMI culture medium and added at the initiation of culture at different concentrations (1-10 µM). Colonies were counted at 7 days using an inverted microscope. A cluster of more than 20 cells was defined as a colony. Individual colonies were plucked from culture plates spread on glass slides and morphologically assessed after preparation with Wright's stain and non-specific esterase in the presence of fluoride (29). The self renewal capacity of cells was assessed according to McCulloch et al (30). RPMI-1640 medium was added to culture dishes for 2 hrs; the contents of each dish were then transferred into a tube, centrifuged and washed with medium three times. Cells from each dish were counted separately, and viability was assessed by trypan blue dye exclusion. Cells (1x10⁴/ml) from each dish were recultured in 0.8 % methylcellulose as before.

[3] abbreviates: DFO 400 mg/kg/d s.c. minipump from day 2, Ara-C 200 mg/kg once ip on day 6.

As to `CCC(Cc1cnc2nc(N)nc(N)c2n1)c1ccc(C(=O)N[C@@H](CCC(=O)O)C(=O)O)cc1` (stereo partly drawn) [10-EDAM, N-[4-[1-(2,4-Diamino-6-pteridinyl)but-2-yl]-benzoyl]-L-glutamic acid], in the experiment with Lewis lung carcinoma (group 4: 10-EDAM 3 mg/kg s.c.), the “Number of lung metastases % of control” value stood at 66%, the “Number of lung metastases x̄ ± SD” value stood at 44 ± 18, the “Tumour weight % of control” value amounted to 91% and the “Tumour weight x̄ ± SD” value was found to be 6.87 ± 0.47 g. Further, in the experiment on Lewis lung carcinoma (group 5: 10-EDAM 6 mg/kg s.c.), the “Number of lung metastases % of control” value was determined as 34%, the “Number of lung metastases x̄ ± SD” value was found to be 23 ± 10, the “Tumour weight % of control” value is reported as 89% and the “Tumour weight x̄ ± SD” value came out at 6.70 ± 1.06 g.
Consider `Nc1ccn([C@@H]2O[C@H](CO)[C@@H](O)[C@@H]2O)c(=O)n1` [Ara-C, 1-β-D-arabinofuranosyl-cytosine], for which the “proportions of proliferating cells” value in the experiment on L-1210 tumour cells (3H-thymidine labelled cells, same doses as Table 12) is reported as 26 % ± 6%. Moreover, in the experiment on L-1210 tumour cells (setting [3]), the “Number of cells in the peritoneal cavity % of control” value is 30%, the “Number of cells in the peritoneal cavity x̄ ± SD” value was 1.11 ± 0.40 * 10^8, the “Number of proliferating cells in peritoneal cavity % of control” value is reported as 24% and the “Number of proliferating cells in peritoneal cavity x̄ ± SD” value is listed as 0.29 ± 0.10 * 10^8. In the experiment on HL-60 cells [1], the HL-60 colony growth entry is “inhibited colony growth in a dose-dependent manner”.
With `CC(=O)N([O-])CCCCCNC(=O)CCC(=O)N([O-])CCCCCNC(=O)CCC(=O)N([O-])CCCCCN.[Fe+3]` [Ferrioxamine], in the experiment with HL-60 cells [2], the colony formation entry is “did not affect colony formation”.
As to `CN(Cc1cnc2nc(N)nc(N)c2n1)c1ccc(C(=O)N[C@@H](CCC(=O)O)C(=O)O)cc1` [methotrexate, L-(+)-N-[4-N-(2,4-diamino-6-pteridinyl)-methyl-N-methyl-amino]-benzoyl-L-glutamic acid], in the experiment with HL-60 cells [1], the HL-60 colony growth result is reported as “dose-dependent growth inhibitory effect”.
